Measured values reported in US9144573B2, “Prostaglandin transporter inhibitors” (Albert Einstein College of Medicine of Yeshiva University, priority 2006, dated 2015).
Entries after “also recorded” stand apart in the source; their conditions may differ.

Assays:
[1] = Chronic oral administration in drinking water: blood PGE2, urine PGE2, bleeding time; assay type: in vivo, mice; conditions: 2 mM in drinking water, 16 days
Experimental: Regular water, vehicle (2% DMSO and 2% cremophor) in drinking water, or 2 mM T26A in drinking water was administered to 17 week old mice for 16 days. At the end of the experiment, we withdrew blood by cardiac puncture. PGE2 in blood samples was measured by using PGE2 EIA kit from Caymanchem.
The mice described above pertaining to FIG. 17 were placed in metabolic cages. Six days after they adjusted to the caged condition (on regular diet and water) regular drinking water, vehicle (2% DMSO and 2% cremophor) in drinking water, or 2 mM T26A in drinking water was administered for 16 days. Urine was collected daily. PGE2 in urine samples was measured using PGE2 EIA kit from Caymanchem. […] This is also consistent with the FIG. 8 model. Inhibiting PGE2 transport into the cell reduces its intracellular degradation such that more is secreted without intracellular degradation.
At the end of the experiment shown in FIGS. 17-18, bleeding time was measured using the tail cut method. About 1 cm tails of restrained mice were cut off; the diameter of the cut was kept the same for all mice. The emerging blood was blotted every 15 seconds without touching the wound. Bleeding time was measured as the point at which bleeding had stopped for 1 minute. Results are shown graphically in FIG. 19. […] It is believed that the blockade of endothelial PCT allows intravascular accumulation of PGE2 or prostacyclin, either of which can inhibit platelet aggregation.

[2] = Endogenous PGE2 in circulating blood after jugular vein injection; assay type: in vivo, rats; conditions: 300 μL of 1 mM, blood 10 minutes later
Experimental: Either 300 μL vehicle (4% DMSO and 4% cremophor in water) or 300 μL of 1 mM T26A was injected into the jugular vein of anesthetized rats (300-325 g weight). One mL of blood was obtained from the carotid artery 10 minutes later, PGE2 in blood samples was measured using PGE2 EIA kit from Caymanchem. […] This finding is consistent with the model advanced in Example 2 (FIG. 8). Since PGT transports PGE2 into the cell, inhibiting PGT would be expected to inhibit removal of PGE2 from blood to be internalized and degraded.

[3] = Degradation of exogenously-administered PGE2; assay type: in vivo, rats; conditions: 300 μL of 1 mM IV, PGE2 injected ten minutes later
Experimental: Either 300 μL vehicle (4% DMSO and 4% cremophor in water) or 300 μL of 1 mM T26A was injected into the jugular vein of anesthetized rats (300-325 g weight). Ten minutes later 100 μL of 1 ng/μL PGE2 was injected. One mL blood was withdrawn from the carotid artery at 1, 3, 5, and 10 min after PGE2 injection. PGE2 in blood samples was measured using PGE2 EIA kit from Caymanchem. […] This is also consistent with the FIG. 8 model. Inhibiting PGE2 transport into the cell reduces its intracellular degradation.

[4] = test system: EP4; experiment: PGE2 binding to EP4 in membranes of MDCK cells expressing PGT; assay type: cell-based, human; conditions: 5 μM, 10 minutes at 37° C.
Experimental: EP4 expression in MDCK cells that constitutively express PGT was tested by determining PGE2 binding to the cells. Wild type MDCK cells and MDCK cells stably expressing PGT were transiently transfected with human cDNA of EP4 (UMR cNDA Resource Center, www.cdna.org). About 30 hours after transfection, the cells were incubated in Waymouth buffer containing 0 and 20 nM of unlabeled PGE2, and either 4% vehicle (DMSO) or 5 μM T26A, for 10 minutes at 37° C. The cells were then washed with PBS buffer and lysed the cells with lysing buffer containing 10 mM TrisHCl, pH, 7.5, 5 mM EDTA, 100 nM okadaic acid, and 20 μM indomethacin. The cells were then harvested and homogenized using a Potter-Elvehiem homogenizer in an ice cold solution containing 10 mM Tris-HCl, pH. 7.4, 1 mM EDTA, 0, 1 mM phenylmethylsulfonyl fluoride, 20 μM indomethacin, then centrifuged the homogenate at 800 g for 5 minutes. The supernatant was transferred to another tube and centrifuged at 19000 rpm for 45 minutes. The supernatant was then discarded and the pellets washed with buffer A containing 20 mM HEPES-NaOH, pH. […] EP4 bound to ^3H-PGE2 were quantified as described by Negishi et al., 1987. Nonspecific binding was determined by using 1000-fold excess of unlabeled PGE2 in the incubation mixture. The specific binding was calculated by subtracting the nonspecific bind value from the total binding value (Nishigaki et al., 1996).

[5] = Systemic BP after IV injection in anesthetized WKY and SHR rats; assay type: in vivo
Experimental: The effect of T26 IV injections on systemic BP in anesthetized rats of a control strain (WKY) and the Spontaneously Hypertensive Rat (SHR) strain was evaluated.

[6] = In vivo test of acute T26A toxicity; parameters: species or system mice; conditions: 100 uL intraperitoneal
Experimental: All mice were male. They received one intraperitoneal injection. The injected volume was 100 uL to all of them, 14 hours after injection, they were all alive, and moved and acted normally.

[7] = Chronic oral tolerability: metabolic cages and post-mortem H&E histology; assay type: in vivo, mice; conditions: for pathological damage to the gastrointestinal tract: H&E stained tissues
Experimental: The mice described in FIGS. 17-19 were studied in metabolic cages. Six days after they adjusted to the caged condition on regular diet and water, regular drinking water, or vehicle (2% DMSO and 2% cremophor) in drinking water, or 2 mM T26A in drinking water was administered for 16 days. Their water and food intake, weight body and urine volume were recorded daily. Results are shown graphically in FIG. 20.
FIG. 21 provides results of post-mortem studies on the mice of FIGS. 17-19 administered either regular drinking water, or vehicle (2% DMSO and 2% cremophor) in drinking water, or 2 mM T26A in drinking water for 16 days. At the end of experiments, we isolated tissues from the mice and made H&E stained slides of tissues and examined the tissues microscopically.

[8] = 2 mM in drinking water, 16 days

[N-]=[N+]=NCCOCCOCCNC(=O)c1ccc(Nc2nc(NCCOCCOCCNC(=O)c3ccccc3)nc(Nc3ccc(O)cc3)n2)cc1 [T26A]
plasma PGE2 levels ([1]; mice): increased plasma PGE2 levels four-fold
urinary excretion of endogenous PGE2 ([1]; mice): increased urinary excretion of endogenous PGE2; also recorded: increases PGE2 excretion in urine
bleeding time ([1]; tail cut method): increases bleeding time
plasma PGE2 concentrations [2]: greater than two-fold increase; also recorded: increases endogenous PGE2
degradation of exogenously-administered PGE2 [3]: inhibited PGE2 degradation; also recorded: reduces the degradation
effect on PGT-induced increase of PGE2 binding to EP4 [4]: abrogates this effect
systemic blood pressure [5]: reduced the blood pressure of both rats
Condition ([6]; 6 mM, 3% DMSO, 3% Cremophor in water): Appeared normal.
Condition ([6]; 25 mM, 5% DMSO, 5% Cremophor in water): More actively than mice #1,; also recorded: More active than mice #1, #4
Condition ([6]; 250 mM in 100% DMSO): Rarely moved for the first
effects on water and food intake, body weight, daily urine volume [7, 8]: did not have any observable effects; also recorded: does not have any apparent effects
pathological damage to the gastrointestinal tract [7, 8]: did not cause any pathological damage
pathological damage to the gastrointestinal tract ([7]; 2 mM in drinking water, 16 days, listed as T26): does not cause any pathological damage
toxicity on chronic oral basis ([7]; doses sufficient to raise plasma and urinary PGE2): non-toxic
